From patent publication US6995188B2 (priority 2002, dated 2006)
Where “and” joins values, the source holds several entries; their conditions need not be identical. Equal values may be shown once.

Tests used:
[1] = SGLU1 multiple dose toxicology in vivo; parameters: species or system mice
Protocol: Further studies were performed to determine the dose-limiting toxicity associated with the administration of repeated doses in groups of mice. Tables 11–16 below describe the results of the multiple-dose toxicology studies for MER-1 and Tables 17–21 describe results of the multiple-dose toxicology of SGLU-1.
The results of the SGLU-1 Multiple Dose I.V. are summarized as follows: Five mice/sex were administered 5 daily intravenous injections of SGLU via the tail vein at doses of 50, 100, 150, 200, 250, 300, and 350 mg/kg/day. All surviving mice were held for 28 days, sacrificed, and designated tissues collected, formalin fixed, and examined.

[2] = tested on: caspase 3 and caspase 3-like activities; format: cell-based, human
[3] = 5 daily IV injections, 50–350 mg/kg/day

In the case of `C[As](C)SC[C@H](NC(=O)CC[C@H](N)C(=O)O)C(=O)NCC(=O)O` [SGLU1, S-(dimethylarsino) glutathione], the “Tail: Acute necrosis with vasculitis, thrombosis, and hemorrhage, incidence” value (from here on “Tail: Acute necrosis with vasculitis”) ([1]; 250 mg/kg/day, M) was 2/5, the “Tail: Ulcerative dermatitis, incidence” value ([1]; 250 mg/kg/day, M) was 1/5 and the “Testes: Seminiferous tubular degeneration, incidence” value (shortened to “Testes … incidence”) ([1]; 250 mg/kg/day, M) was 2/5. The “Body Weights Avg.” value ([1]; 250 mg/kg/day, Male) was 24 grams, the “Clinical Signs” value ([1]; 300 mg/kg/day IV daily x5) was “Slight decr. activity and 1 F tail necr.: amputate” and the “Kidney: Congestion, incidence” value ([1]; 300 mg/kg/day, F) was 1/5. For the same compound, the “Liver: Hepatocyte hypertrophy: Centrilobular (compatible with SER), incidence” value (“Liver … (compatible with SER), incidence” below) ([1]; 300 mg/kg/day, F) was 2/5, the “Liver: Hepatocyte hypertrophy: Panlobular w/eosinophilia, incidence” value ([1]; 300 mg/kg/day, F) was 1/5 and the “Liver: Pyogranuloma, focal, incidence” value ([1]; 300 mg/kg/day, F) was 1/5. For the same compound, the “Lung: Atelectasis, incidence” value ([1]; 300 mg/kg/day, F) was 1/5, the “Lung: Congestion, incidence” value ([1]; 300 mg/kg/day, F) was 3/5 and the “Lung: Vasculitis, incidence” value ([1]; 300 mg/kg/day, F) was 1/5. For the same compound, the “Number of animals/dose that tolerated 1 dose” value ([1]; 300 mg/kg/day, F) was 1/5, the “Number of animals/dose that tolerated 2 doses” value ([1]; 300 mg/kg/day, F) was 2/5 and the “Number of animals/dose that tolerated 5 doses” value ([1]; 300 mg/kg/day, F) was 2/5. For the same compound, the “Tail: Acute necrosis with vasculitis” value ([1]; 300 mg/kg/day, F) was 1/5, the “Body Weights Avg.” value ([1]; 300 mg/kg/day, Female) was 24 grams and the “Epididymus: Oligospermia, incidence” value ([1]; 300 mg/kg/day, M) was 2/5. The “Heart: Medial hyprtrophy, coronary artery, incidence” value ([1]; 300 mg/kg/day, M) was 1/5, the “Liver … (compatible with SER), incidence” value ([1]; 300 mg/kg/day, M) was 4/5 and the “Liver: Pyogranuloma, focal, incidence” value ([1]; 300 mg/kg/day, M) was 2/5. The “Lung: Congestion, incidence” value ([1]; 300 mg/kg/day, M) was 1/5, the “Number of animals/dose that tolerated 1 dose” value ([1]; 300 mg/kg/day, M) was 3/5 and the “Number of animals/dose that tolerated 5 doses” value ([1]; 300 mg/kg/day, M) was 2/5. For the same compound, the “Tail: Acute necrosis with vasculitis” value ([1]; 300 mg/kg/day, M) was 1/5, the “Tail: Ulcerative dermatitis, incidence” value ([1]; 300 mg/kg/day, M) was 1/5 and the “Testes … incidence” value ([1]; 300 mg/kg/day, M) was 2/5. The “Body Weights Avg.” value ([1]; 300 mg/kg/day, Male) was 23 grams, the “Clinical Signs” value ([1]; 350 mg/kg/day IV daily x5) was “Moderate decr. activity and 2 M tail necr.: amputate” and the “Kidney: Murine progressive glomerulonephropathy, incidence” value ([1]; 350 mg/kg/day, F) was 1/5. For the same compound, the “Liver: Hepatocyte hypertrophy: Periportal w/vacuolation, incidence” value ([1]; 350 mg/kg/day, F) was 2/5, the “Liver: Inflammation, portal, incidence” value ([1]; 350 mg/kg/day, F) was 1/5 and the “Lung: Congestion, incidence” value ([1]; 350 mg/kg/day, F) was 2/5. The “Lung: Fibrin Thrombi, incidence” value ([1]; 350 mg/kg/day, F) was 1/5, the “Lung: Vasculitis, incidence” value ([1]; 350 mg/kg/day, F) was 1/5 and the “Mandibular L. N.: Apoptosis, lymphocyte, incidence” value ([1]; 350 mg/kg/day, F) was 1/5. The “Number of animals/dose that tolerated 1 dose” value ([1]; 350 mg/kg/day, F) was 4/5, the “Number of animals/dose that tolerated 2 doses” value ([1]; 350 mg/kg/day, F) was 1/5 and the “Spleen: Congestion, incidence” value ([1]; 350 mg/kg/day, F) was 5/5. For the same compound, the “Thymus: Apoptosis, increased, incidence” value ([1]; 350 mg/kg/day, F) was 5/5, the “Body Weights Avg.” value ([1]; 350 mg/kg/day, Female) was 24 grams and the “Bone Marrow: Myeloid hyperplasia, incidence” value ([1]; 350 mg/kg/day, M) was 1/5. The “Epididymus: Oligospermia, incidence” value ([1]; 350 mg/kg/day, M) was 5/5, the “Kidney: Congestion, incidence” value ([1]; 350 mg/kg/day, M) was 1/5 and the “Kidney: Inflammation, focal, incidence” value ([1]; 350 mg/kg/day, M) was 1/5. For the same compound, the “Liver … (compatible with SER), incidence” value ([1]; 350 mg/kg/day, M) was 1/5, the “Liver: Increased mitoses, incidence” value ([1]; 350 mg/kg/day, M) was 1/5 and the “Liver: Pyogranuloma, focal, incidence” value ([1]; 350 mg/kg/day, M) was 2/5. For the same compound, the “Lung: Fibrin Thrombi, incidence” value ([1]; 350 mg/kg/day, M) was 1/5, the “Lung: Hemorrhage, focal, incidence” value ([1]; 350 mg/kg/day, M) was 2/5 and the “Number of animals/dose that tolerated 1 dose” value ([1]; 350 mg/kg/day, M) was 3/5. For the same compound, the “Number of animals/dose that tolerated 5 doses” value ([1]; 350 mg/kg/day, M) was 2/5, the “Spleen: Congestion, incidence” value ([1]; 350 mg/kg/day, M) was 2/5 and the “Spleen: Extramedullary hematopoiesis, increased, incidence” value ([1]; 350 mg/kg/day, M) was 1/5. The “Tail: Acute necrosis with vasculitis” value ([1]; 350 mg/kg/day, M) was 1/5, the “Testes … incidence” value ([1]; 350 mg/kg/day, M) was 5/5 and the “Thymus: Apoptosis, increased, incidence” value ([1]; 350 mg/kg/day, M) was 2/5. The “Body Weights Avg.” value ([1]; 350 mg/kg/day, Male) was 20 grams, the “deaths (summary)” value [1, 3] was “Deaths occurred at 250, 300, and 350 mg/kg/day with female mice being more susceptible than males” and the “microscopic observations (summary)” value [1, 3] was “compound-related lesions in lung, liver, thymus, and testes”. For the same compound, the “Deaths, number of animals/dose” value ([1]; 5 daily IV injections, F, 50 mg/kg/day) was 0/5, the “Deaths, number of animals/dose” value ([1]; 5 daily IV injections, F, 150 mg/kg/day) was 0/5 and the “Deaths, number of animals/dose” value ([1]; 5 daily IV injections, F, 200 mg/kg/day) was 0/5. The “Deaths, number of animals/dose” value ([1]; 5 daily IV injections, F, 250 mg/kg/day) was 1/5, the “Deaths, number of animals/dose” value ([1]; 5 daily IV injections, F, 300 mg/kg/day) was 3/5 and the “Deaths, number of animals/dose” value ([1]; 5 daily IV injections, F, 350 mg/kg/day) was 5/5. For the same compound, the “Deaths, number of animals/dose” value ([1]; 5 daily IV injections, M, 50 mg/kg/day) was 0/5, the “Deaths, number of animals/dose” value ([1]; 5 daily IV injections, M, 100 mg/kg/day) was 0/5 and the “Deaths, number of animals/dose” value ([1]; 5 daily IV injections, M, 150 mg/kg/day) was 0/5. The “Deaths, number of animals/dose” value ([1]; 5 daily IV injections, M, 200 mg/kg/day) was 0/5, the “Deaths, number of animals/dose” value ([1]; 5 daily IV injections, M, 250 mg/kg/day) was 0/5 and the “Deaths, number of animals/dose” value ([1]; 5 daily IV injections, M, 300 mg/kg/day) was 1/5. The “Deaths, number of animals/dose” value ([1]; 5 daily IV injections, M, 350 mg/kg/day) was 3/5, the no-observable-effect level ([1]; 5 daily IV injections, female mice) was 150 mg/kg and the “centrilobular hypertrophy of hepatocytes, incidence” value ([1]; 5 daily IV injections, female mice, 200 mg/kg/day) was 1/5. For the same compound, the “no-observable-effect level (NOEL)” value ([1]; 5 daily IV injections, male mice) was 100 mg/kg/day, the “testicular seminiferous tubular degeneration, incidence” value ([1]; 5 daily IV injections, males, 150 mg/kg/day) was 1/5 and the “activation of caspases (PhiPhiLux staining)” value [2] was “activation of caspases”.
